Structures can show the parent of a compound that is named as a salt. Where two headings read alike, the source gives them in different places.
Assays:
human M3 receptors = biological target: T1, human M3 receptors (Homo sapiens, UniProt P20309); assay: Binding test to cloned human M3 muscarinic receptor ([3H]-NMS displacement, CHO-K1 membranes)
T1 construct: purchased Receptor Biology; host or cells: CHO-K1 cells transfected with the human receptor (membranes)
Protocol: (§1) Membranes from CHO—K1 cells transfected with human M2 or M3 receptors (Receptor Biology) were used. The summarised experimental procedure for both receptors was the following: membranes (15–20 μg) were incubated with [^3H]-NMS (0.3–0.5 nM) for 60 min at 25° C., in presence or absence of the antagonists. Incubation was carried out in 96 wells polystyrene microplates in a total incubation volume of 0.2 mL of PBS pH 7.4. Non specific binding was determined in parallel assays in presence of atropine (5 μM). Samples were filtered through type GF/C glass fibre, preincubated with PEI 0.3%. Filters were washed 3–4 times with 50 mM Tris-HCl, 0.9% NaCl, pH 7.4 at 4° C., and dried at 50° C. for 45 min. Filter bound radioactivity was quantified by liquid scintillation counting.
(§2) For the calculation of the inhibition constant (Ki), displacement curves were analysed by non-linear regression (GraphPad Prism). Dissociation constant (KD) of [^3H]-NMS for each receptor was obtained through the saturation curves obtained in the same conditions as the experiments carried out with the antagonists.

human M2 receptors = biological target: T2, human M2 receptors (Homo sapiens, UniProt P08172); assay: Binding test to cloned human M2 muscarinic receptor ([3H]-NMS displacement, CHO-K1 membranes), reported as M2/M3 ratio; conditions: value greater than 1 indicates selectivity for the M3 receptor
T2 construct: purchased Receptor Biology; host or cells: CHO-K1 cells transfected with the human receptor (membranes)
T2 sequence (P08172 1-466): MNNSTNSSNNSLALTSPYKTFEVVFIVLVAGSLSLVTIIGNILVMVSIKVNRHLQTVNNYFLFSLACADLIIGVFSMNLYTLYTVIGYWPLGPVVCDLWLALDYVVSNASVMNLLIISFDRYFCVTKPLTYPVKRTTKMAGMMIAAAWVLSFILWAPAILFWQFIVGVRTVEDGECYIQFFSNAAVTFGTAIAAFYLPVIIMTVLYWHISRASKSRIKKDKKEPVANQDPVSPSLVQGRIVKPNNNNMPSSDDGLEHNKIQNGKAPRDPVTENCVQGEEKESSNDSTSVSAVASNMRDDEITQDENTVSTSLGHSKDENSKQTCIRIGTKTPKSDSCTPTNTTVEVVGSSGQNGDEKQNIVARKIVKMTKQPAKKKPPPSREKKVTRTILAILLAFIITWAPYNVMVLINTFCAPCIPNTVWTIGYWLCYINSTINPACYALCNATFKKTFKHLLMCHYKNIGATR
Protocol: as §1, §2

[1] = membranes of CHO-K1 cells transfected with human M3, [3H]-NMS, mean of two independent experiments in duplicate, read-out: M3 (human M3 antagonist activity, binding affinity constant Ki)

T1 sequence (P20309 whole entry): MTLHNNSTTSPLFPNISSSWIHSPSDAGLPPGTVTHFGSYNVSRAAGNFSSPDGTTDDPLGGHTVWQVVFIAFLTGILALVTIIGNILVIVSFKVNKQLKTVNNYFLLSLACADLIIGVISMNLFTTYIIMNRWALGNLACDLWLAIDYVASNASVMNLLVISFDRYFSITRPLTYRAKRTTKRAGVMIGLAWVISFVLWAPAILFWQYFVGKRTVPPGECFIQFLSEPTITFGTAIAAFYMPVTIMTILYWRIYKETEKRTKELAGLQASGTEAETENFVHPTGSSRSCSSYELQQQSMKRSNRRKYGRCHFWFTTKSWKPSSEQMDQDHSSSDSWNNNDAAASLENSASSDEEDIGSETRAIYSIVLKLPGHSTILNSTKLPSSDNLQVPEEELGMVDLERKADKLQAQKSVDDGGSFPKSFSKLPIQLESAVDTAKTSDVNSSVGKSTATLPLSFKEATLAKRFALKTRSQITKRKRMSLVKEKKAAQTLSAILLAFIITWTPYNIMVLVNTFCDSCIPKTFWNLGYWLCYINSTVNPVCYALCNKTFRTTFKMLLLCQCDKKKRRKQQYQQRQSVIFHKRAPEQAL

| Structure (SMILES) | Ki (human M3 receptors) [nM] | M2/M3 (ratio between M2 and M3 receptor affinities) (human M2 receptors) | Ki (human M3 receptors; [1]) [nM] |
| --- | --- | --- | --- |
| O=C(OC1CN2CCC1CC2)N(Cc1ccccc1)c1ccccc1 (stereo not drawn) [Example 1, 3-quinuclidyl N-benzyl-N-phenylcarbamate, hydrochloride] | 0.45 | 10 |  |
| O=C(O[C@H]1CN2CCC1CC2)N(Cc1ccccc1)c1ccccc1 [Example 2, (R)-3-quinuclidyl N-benzyl-N-phenylcarbamate, hydrochloride] | 0.31 | 5 |  |
| C[N+]12CCC(CC1)C(OC(=O)N(Cc1ccccc1)c1ccccc1)C2.[I-] [Example 3, (R)-3-N-benzyl-N-phenylcarbamoyloxy)-1-methylquinuclidinium iodide] |  | 7 | 2.6 |
| O=C(OC1CN2CCC1CC2)N(Cc1ccccc1)c1ccccc1F (stereo not drawn) [Example 5] |  | 47 | 0.047 |
| O=C(OC1CN2CCC1CC2)N(Cc1ccccc1)c1cccc(Cl)c1 (stereo not drawn) [Example 6] |  | 87 | 0.21 |
| O=C(OC1CN2CCC1CC2)N(Cc1ccccc1)c1cccc(Br)c1 (stereo not drawn) [Example 7] |  | 19 | 2.05 |
| O=C(O[C@H]1CN2CCC1CC2)N(Cc1ccccc1)c1c(F)cccc1F [Example 8] |  | 11 | 0.2 |
| O=C(OC1CN2CCC1CC2)N(Cc1ccccc1)c1ccc(F)c(F)c1 (stereo not drawn) [Example 9] |  | 9 | 19.6 |
| Cc1cccc(N(Cc2ccccc2)C(=O)OC2CN3CCC2CC3)c1 (stereo not drawn) [Example 10] |  | 44 | 0.14 |
| Cc1cccc(C)c1N(Cc1ccccc1)C(=O)OC1CN2CCC1CC2 (stereo not drawn) [Example 11] |  | 11 | 6.12 |
| O=C(OC1CN2CCC1CC2)N(Cc1ccccc1)c1ccc2c(c1)CCC2 (stereo not drawn) [Example 12] |  | 6 | 30.7 |
| N#Cc1ccc(N(Cc2ccccc2)C(=O)OC2CN3CCC2CC3)cc1 (stereo not drawn) [Example 13] |  | 17 | 4.31 |
| O=C(OC1CN2CCC1CC2)N(Cc1ccccc1)c1ccccc1O (stereo not drawn) [Example 14] |  | 21 | 0.31 |
| Cc1ccc(F)c(N(Cc2ccccc2F)C(=O)OC2CN3CCC2CC3)c1 (stereo not drawn) [Example 15] |  | 21 | 0.53 |
| O=C(OC1CN2CCC1CC2)N(Cc1ccccc1Br)c1ccccc1 (stereo not drawn) [Example 16] |  | 13 | 4.23 |
| O=C(OC1CN2CCC1CC2)N(Cc1cccc(F)c1)c1cccc(F)c1 (stereo not drawn) [Example 17] |  | 196 | 0.054 |
| O=C(OC1CN2CCC1CC2)N(Cc1ccc(F)cc1)c1cccc(F)c1F (stereo not drawn) [Example 18] |  | 154 | 0.92 |
| Cc1ccc(F)c(N(Cc2ccc(Cl)cc2)C(=O)OC2CN3CCC2CC3)c1 (stereo not drawn) [Example 19] |  | 23 | 1.2 |
| O=C(OC1CN2CCC1CC2)N(Cc1cccc(F)c1F)c1cccc(Cl)c1 (stereo not drawn) [Example 20] |  | 149 | 0.33 |
| O=C(OC1CN2CCC1CC2)N(Cc1ccc(Cl)cc1Cl)c1ccc(F)cc1F (stereo not drawn) [Example 21] |  | 5 | 105 |
| Cc1cccc(N(Cc2ccc(F)cc2F)C(=O)OC2CN3CCC2CC3)c1 (stereo not drawn) [Example 22] |  | 21 | 0.51 |
| COc1ccc(CN(C(=O)OC2CN3CCC2CC3)c2cccc(Cl)c2)c(F)c1 (stereo not drawn) [Example 23] |  | 118 | 0.73 |
| O=C(OC1CN2CCC1CC2)N(Cc1cc(F)ccc1F)c1ccccc1Cl (stereo not drawn) [Example 24] |  | 33 | 0.48 |

| Structure (SMILES) | Ki (human M3 receptors) [nM] | M2/M3 (ratio between M2 and M3 receptor affinities) (human M2 receptors) | Ki (human M3 receptors; [1]) [nM] |
| --- | --- | --- | --- |
| COc1ccc(F)c(CN(C(=O)OC2CN3CCC2CC3)c2ccccc2)c1 (stereo not drawn) [Example 25] |  | 19 | 1.7 |
| O=C(OC1CN2CCC1CC2)N(Cc1ccc(F)c(F)c1)c1ccccc1 (stereo not drawn) [Example 26] |  | 50 | 0.1 |
| O=C(OC1CN2CCC1CC2)N(Cc1ccc(Cl)c(F)c1)c1ccccc1F (stereo not drawn) [Example 27] |  | 92 | 0.37 |
| O=C(OC1CN2CCC1CC2)N(Cc1ccc(F)c(Cl)c1)c1ccccc1 (stereo not drawn) [Example 28] |  | 35 | 1.5 |
| O=C(OC1CN2CCC1CC2)N(Cc1ccc(Cl)c(Cl)c1)c1ccccc1 (stereo not drawn) [Example 29] |  | 50 | 1.4 |
| Cc1cccc(N(Cc2cc(F)cc(F)c2)C(=O)OC2CN3CCC2CC3)c1 (stereo not drawn) [Example 30] |  | 74 | 0.09 |
| Cc1cccc(N(Cc2ccc(C)c(F)c2)C(=O)OC2CN3CCC2CC3)c1 (stereo not drawn) [Example 31] |  | 52 | 0.32 |
| COc1ccc(CN(C(=O)OC2CN3CCC2CC3)c2ccccc2F)cc1F (stereo not drawn) [Example 32] |  | 19 | 3.3 |
| O=C(OC1CN2CCC1CC2)N(Cc1ccc(F)c(F)c1F)c1cccc(Cl)c1 (stereo not drawn) [Example 33] |  | 142 | 0.4 |
| Cc1cccc(N(Cc2cc(F)cc(F)c2F)C(=O)OC2CN3CCC2CC3)c1 (stereo not drawn) [Example 34] |  | 90 | 0.3 |
| Cc1cccc(N(Cc2cc(F)c(F)cc2F)C(=O)OC2CN3CCC2CC3)c1 (stereo not drawn) [Example 35] |  | 839 | 0.031 |
| O=C(OC1CN2CCC1CC2)N(Cc1cc(F)c(F)c(F)c1)c1cccc(F)c1 (stereo not drawn) [Example 36] |  | 545 | 0.04 |
| O=C(OC1CN2CCC1CC2)N(Cc1cc(F)c(F)c(F)c1)c1ccc(F)cc1 (stereo not drawn) [Example 37] |  | 134 | 0.66 |
| Cc1cccc(N(Cc2ccccc2C)C(=O)OC2CN3CCC2CC3)c1 (stereo not drawn) [Example 38] |  | 40 | 0.23 |
| O=C(OC1CN2CCC1CC2)N(Cc1ccc(C(F)(F)F)cc1)c1ccccc1 (stereo not drawn) [Example 39] |  | 84 | 0.32 |
| CCc1ccc(CN(C(=O)OC2CN3CCC2CC3)c2ccccc2)cc1 (stereo not drawn) [Example 40] |  | 92 | 0.066 |
| CC(C)(C)c1ccc(CN(C(=O)OC2CN3CCC2CC3)c2ccccc2)cc1 (stereo not drawn) [Example 41] |  | 271 | 0.11 |
| Cc1ccccc1N(Cc1ccc(CO)cc1)C(=O)OC1CN2CCC1CC2 (stereo not drawn) [Example 42] |  | 38 | 1.17 |
| N#Cc1ccc(CN(C(=O)OC2CN3CCC2CC3)c2ccccc2)cc1 (stereo not drawn) [Example 43] |  | 31 | 0.9 |
| NC(=O)c1ccc(CN(C(=O)OC2CN3CCC2CC3)c2ccccc2)cc1 (stereo not drawn) [Example 44] |  | 6 | 7.7 |
| O=C(OC1CN2CCC1CC2)N(Cc1ccccc1O)c1ccccc1F (stereo not drawn) [Example 45] |  | 37 | 0.18 |
| Cc1cccc(N(Cc2cccc(O)c2)C(=O)OC2CN3CCC2CC3)c1 (stereo not drawn) [Example 46] |  | 33 | 0.15 |

Reference: patent publication US7115629B2, “Carbamates derived from arylalkylamines” (Laboratorios S.A.L.V.A.T., S.A., priority 2000, dated 2006)
